Results published in the supplement of paper PMC4862054.

Key:
Details in all cases: incubation time: 72 h
Hs578T [1] = assay: normalised response (% of control), CellTox Green; higher = less cell death (100 = DMSO, 0 = benzethonium chloride kill control)
In short: (§1)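 Values are normalised signals, each belonging to one concentration of the series. Breast cancer cells (20 µl suspension) were seeded into 384-well plates with compound at 5 concentrations in 10-fold steps over a compound-specific 10,000-fold range and incubated 72 h. Readouts were CellTox Green fluorescence (485/520 nm), then CellTiter-Glo luminescence after 10 min at room temperature, with each plate set to 0.1 % DMSO as 100 and a positive kill control as 0.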

MFM-223 [2] = assay: as above
In short: as §1

CAL-120 [3] = assay: as above
In short: as §1

BT-549 [4] = assay: as above
In short: as §1

HCC1143 [5] = assay: as above
In short: as §1

HCC1599 [6] = assay: as above
In short: as §1

HCC1937 [7] = assay: as above
In short: as §1

CAL-51 [8] = assay: as above
In short: as §1

CAL-85-1 [9] = assay: as above
In short: as §1

CAL-148 [10] = assay: as above
In short: as §1

BT-474 [11] = assay: as above
In short: as §1

MDA-MB-453 [12] = assay: as above
In short: as §1

DU-4475 [13] = assay: as above
In short: as §1

MDA-MB-436 [14] = assay: as above
In short: as §1

MDA-MB-231 [15] = assay: as above
In short: as §1

MDA-MB-468 [16] = assay: as above
In short: as §1

HDQ-P1 [17] = assay: as above
In short: as §1

Hs578T [18] = assay: normalised response (% of control), CellTiter-Glo; higher = more viable cells (100 = DMSO, 0 = benzethonium chloride kill control)
Procedure: (§2)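 DSRT, 72 h incubation, CellTox Green / CellTiter-Glo readout. Signal is normalised to DMSO and benzethonium chloride controls. Value is the normalised response at dose 3.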

MCF-10A [19] = assay: as above
Procedure: as §2

MFM-223 [20] = assay: as above
Procedure: as §2

CAL-120 [21] = assay: as above
Procedure: as §2

BT-549 [22] = assay: as above
Procedure: as §2

HCC1143 [23] = assay: as above
Procedure: as §2

HCC1599 [24] = assay: as above
Procedure: as §2

SK-BR-3 = assay: as above
Procedure: as §2

HCC1937 [25] = assay: as above
Procedure: as §2

CAL-51 [26] = assay: as above
Procedure: as §2

CAL-85-1 [27] = assay: as above
Procedure: as §2

CAL-148 [28] = assay: as above
Procedure: as §2

BT-474 [29] = assay: as above
Procedure: as §2

MDA-MB-453 [30] = assay: as above
Procedure: as §2

DU-4475 [31] = assay: as above
Procedure: as §2

MDA-MB-436 [32] = assay: as above
Procedure: as §2

MDA-MB-231 [33] = assay: as above
Procedure: as §2

MDA-MB-468 [34] = assay: as above
Procedure: as §2

HDQ-P1 [35] = assay: as above
Procedure: as §2

MCF-10A [36] = assay: normalised response (% of control), CellTox Green; higher = less cell death (100 = DMSO, 0 = benzethonium chloride kill control)
In short: as §1

Structure (SMILES): CC(C)c1c(C(=O)Nc2ccccc2)c(-c2ccccc2)c(-c2ccc(F)cc2)n1CC[C@@H](O)C[C@@H](O)CC(=O)O [Atorvastatin] (100 nM)
- normalised response (Hs578T [1]): 93.4%
- normalised response (MFM-223 [2]): 98%
- normalised response (CAL-120 [3]): 98.4%
- normalised response (BT-549 [4]): 98.1%
- normalised response (HCC1143 [5]): 109%
- normalised response (HCC1599 [6]): 88.1%
- normalised response (HCC1937 [7]): 81.6%
- normalised response (CAL-51 [8]): 109%
- normalised response (CAL-85-1 [9]): 94.1%
- normalised response (CAL-148 [10]): 80.9%
- normalised response (BT-474 [11]): 103%
- normalised response (MDA-MB-453 [12]): 99.2%
- normalised response (DU-4475 [13]): 103%
- normalised response (MDA-MB-436 [14]): 109%
- normalised response (MDA-MB-231 [15]): 105%
- normalised response (MDA-MB-468 [16]): 120%
- normalised response (HDQ-P1 [17]): 86.4%
- normalised response (Hs578T [18]): 102%
- normalised response (MCF-10A [19]): 98.4%
- normalised response (MFM-223 [20]): 98.9%
- normalised response (CAL-120 [21]): 103%
- normalised response (BT-549 [22]): 94%
- normalised response (HCC1143 [23]): 103%
- normalised response (HCC1599 [24]): 105%
- normalised response (SK-BR-3): 98.9%
- normalised response (HCC1937 [25]): 102%
- normalised response (CAL-51 [26]): 103%
- normalised response (CAL-85-1 [27]): 103%
- normalised response (CAL-148 [28]): 108%
- normalised response (BT-474 [29]): 94.8%
- normalised response (MDA-MB-453 [30]): 111%
- normalised response (DU-4475 [31]): 98.6%
- normalised response (MDA-MB-436 [32]): 91.5%
- normalised response (MDA-MB-231 [33]): 97.5%
- normalised response (MDA-MB-468 [34]): 93.8%
- normalised response (HDQ-P1 [35]): 98%

Structure (SMILES): CN(C)C[C@@H]1CCn2cc(c3ccccc32)C2=C(C(=O)NC2=O)c2cn(c3ccccc23)CCO1 [Ruboxistaurin] (100 nM)
- normalised response (Hs578T [1]): 66.2%
- normalised response (MCF-10A [36]): 95.6%
- normalised response (MFM-223 [2]): 103%
- normalised response (CAL-120 [3]): 103%
- normalised response (BT-549 [4]): 109%
- normalised response (HCC1143 [5]): 99.5%
- normalised response (HCC1599 [6]): 96.2%
- normalised response (HCC1937 [7]): 90%
- normalised response (CAL-51 [8]): 101%
- normalised response (CAL-85-1 [9]): 109%
- normalised response (CAL-148 [10]): 102%
- normalised response (BT-474 [11]): 98.9%
- normalised response (MDA-MB-453 [12]): 92.7%
- normalised response (DU-4475 [13]): 99.3%
- normalised response (MDA-MB-436 [14]): 79.8%
- normalised response (MDA-MB-231 [15]): 112%
- normalised response (MDA-MB-468 [16]): 141%
- normalised response (HDQ-P1 [17]): 102%
- normalised response (Hs578T [18]): 98%
- normalised response (MCF-10A [19]): 89.3%
- normalised response (MFM-223 [20]): 99.8%
- normalised response (CAL-120 [21]): 92.7%
- normalised response (BT-549 [22]): 102%
- normalised response (HCC1143 [23]): 94.7%
- normalised response (HCC1599 [24]): 105%
- normalised response (SK-BR-3): 93%
- normalised response (HCC1937 [25]): 95.1%
- normalised response (CAL-51 [26]): 105%
- normalised response (CAL-85-1 [27]): 96.6%
- normalised response (CAL-148 [28]): 94.5%
- normalised response (BT-474 [29]): 99.5%
- normalised response (MDA-MB-453 [30]): 105%
- normalised response (DU-4475 [31]): 95.5%
- normalised response (MDA-MB-436 [32]): 98%
- normalised response (MDA-MB-231 [33]): 96.1%
- normalised response (MDA-MB-468 [34]): 93.8%
- normalised response (HDQ-P1 [35]): 99.3%

Structure (SMILES): O=C1NC(=O)[C@@H](c2cn3c4c(cccc24)CCC3)[C@@H]1c1c[nH]c2ccccc12 [Tivantinib] (10 nM)
- normalised response (Hs578T [1]): 110%
- normalised response (MCF-10A [36]): 84.5%
- normalised response (MFM-223 [2]): 98.9%
- normalised response (CAL-120 [3]): 103%
- normalised response (BT-549 [4]): 104%
- normalised response (HCC1143 [5]): 105%
- normalised response (HCC1599 [6]): 103%
- normalised response (HCC1937 [7]): 106%
- normalised response (CAL-51 [8]): 102%
- normalised response (CAL-85-1 [9]): 102%
- normalised response (CAL-148 [10]): 78.8%
- normalised response (BT-474 [11]): 97.8%
- normalised response (MDA-MB-453 [12]): 106%
- normalised response (DU-4475 [13]): 100%
- normalised response (MDA-MB-436 [14]): 90.1%
- normalised response (MDA-MB-231 [15]): 105%
- normalised response (MDA-MB-468 [16]): 131%
- normalised response (HDQ-P1 [17]): 109%
- normalised response (Hs578T [18]): 92.6%
- normalised response (MCF-10A [19]): 103%
- normalised response (MFM-223 [20]): 99.6%
- normalised response (CAL-120 [21]): 96.3%
- normalised response (BT-549 [22]): 98.3%
- normalised response (HCC1143 [23]): 97.8%
- normalised response (HCC1599 [24]): 105%
- normalised response (SK-BR-3): 99.4%
- normalised response (HCC1937 [25]): 97.6%
- normalised response (CAL-51 [26]): 106%
- normalised response (CAL-85-1 [27]): 99.2%
- normalised response (CAL-148 [28]): 98.4%
- normalised response (BT-474 [29]): 104%
- normalised response (MDA-MB-453 [30]): 85%
- normalised response (DU-4475 [31]): 104%
- normalised response (MDA-MB-436 [32]): 102%
- normalised response (MDA-MB-231 [33]): 103%
- normalised response (MDA-MB-468 [34]): 99.6%
- normalised response (HDQ-P1 [35]): 100%

Structure (SMILES): Cc1ccc(NC(=O)c2ccc(CN3CCN(C)CC3)cc2)cc1Nc1nccc(-c2cccnc2)n1 [Imatinib] (100 nM)
- normalised response (Hs578T [1]): 62.7%
- normalised response (MCF-10A [36]): 70.4%
- normalised response (MFM-223 [2]): 101%
- normalised response (CAL-120 [3]): 96.8%
- normalised response (BT-549 [4]): 104%
- normalised response (HCC1143 [5]): 63.2%
- normalised response (HCC1599 [6]): 108%
- normalised response (HCC1937 [7]): 112%
- normalised response (CAL-51 [8]): 106%
- normalised response (CAL-85-1 [9]): 102%
- normalised response (BT-474 [11]): 99.8%
- normalised response (MDA-MB-453 [12]): 102%
- normalised response (DU-4475 [13]): 102%
- normalised response (MDA-MB-436 [14]): 110%
- normalised response (MDA-MB-231 [15]): 119%
- normalised response (MDA-MB-468 [16]): 110%
- normalised response (HDQ-P1 [17]): 111%
- normalised response (Hs578T [18]): 106%
- normalised response (MCF-10A [19]): 104%
- normalised response (MFM-223 [20]): 107%
- normalised response (CAL-120 [21]): 106%
- normalised response (BT-549 [22]): 109%
- normalised response (HCC1143 [23]): 104%
- normalised response (HCC1599 [24]): 97%
- normalised response (SK-BR-3): 105%
- normalised response (HCC1937 [25]): 98%
- normalised response (CAL-51 [26]): 107%
- normalised response (CAL-85-1 [27]): 97.9%
- normalised response (CAL-148 [28]): 111%
- normalised response (BT-474 [29]): 99%
- normalised response (MDA-MB-453 [30]): 111%
- normalised response (DU-4475 [31]): 103%
- normalised response (MDA-MB-436 [32]): 103%
- normalised response (MDA-MB-231 [33]): 96.8%
- normalised response (MDA-MB-468 [34]): 106%
- normalised response (HDQ-P1 [35]): 98.6%
